Where “and” joins values, the source holds several entries; their conditions need not be identical. Equal entries are not always repeated. Where two headings read alike, the source gives them in different places. Marks after values point to notes of the source that are not given here.
What was measured:
P. acnes NCTC 737 = experiment: Fixed ratio combination MIC/MBC assays; assay type: cell-based, Propionibacterium acnes
Protocol: (§1) (g) Fixed Ratio Combination MIC/MBC Assays
(§2) This method used a sterile 96-well microtitre plate, capable of holding about 200 μl of liquid per well. The wells contained liquid culture medium and ranges of decreasing concentrations of the relevant test compounds alone in doubling dilutions (eg 1000, 500, 250, 125 . . . μg/ml, etc. down to 0.49 μg/ml) or doubling dilutions of a combination of two compounds mixed initially at a fixed concentration ratio (based on molarity in this instance). The culture medium was as described above.
(§3) The wells were inoculated with a liquid suspension of freshly grown micro-organism and incubated under the conditions described above. After incubation, the microtitre plate was examined visually (with the aid of a light box) for cloudiness in each well, which would indicate microbial growth. The MIC value was recorded as the lowest concentration of test compounds alone or concentrations of the mixture of the two test compounds required to inhibit microbial growth, ie the liquid in the well remained clear.
(§4) The assays were conducted in triplicate and included both negative (culture medium with no micro-organisms) and positive (culture medium plus diluting solvent(s) plus micro-organism) controls.
(§5) These samples were then individually sub-cultured on antibiotic-free agar medium, under the incubation conditions described above. Following incubation they were examined visually for microbial growth.
(§6) Thus for each mixture tested, the FIC for compound A (FICA)=MIC for (A+B)/MIC for A alone. Similarly the FIC for compound B (FICB)=MIC for (A+B)/MIC for B alone. The overall FICI=FICA+FICB.
(§7) FBC & FBCI were calculated in the same manner using recorded MBC values.

C. striatum NCTC 764 = experiment: Fixed ratio combination MIC/MBC assays; assay type: cell-based, Corynebacterium striatum
Protocol: The second test organism used was Corynebacterium striatum NCTC 764. This is a Gram-positive bacterium which is closely related to organisms (aerobic diphtheroids of the genus Corynebacterium) that cause body odour (Guillet et al, Eur J Dermatol, 2000 Jan-Feb, 10(1): 41-2). The C. striatum was cultured and maintained on Mueller-Hinton Medium (agar and broth) at pH 7.3 (±0.1); cultures were incubated aerobically at 37° C. for 18-24 hours.
as §1, §2, §3, §4, §5, §6, §7

[1] = system: Propionibacterium acnes NCTC 737; experiment: Disc diffusion assay (DDA) and synergy disc diffusion assay (SDDA); assay type: cell-based
Protocol: (c) Disc Diffusion Assay (DDA)
This is an internationally recognised standard method for qualitatively assessing the antimicrobial activity of a compound or combination of compounds.
A sterile paper disc was impregnated with a sample of the test compound(s) in a suitable solvent (or applied neat) and 30 minutes allowed for any of the solvents to evaporate (where possible). The disc was then placed on an agar plate onto which the test micro-organism had been inoculated. The plate was then incubated under the conditions described above, following which it was examined visually for signs of microbial growth. […] The diameter of this zone of “inhibition” was measured using a ProtoCOL™ automated zone sizer (Synbiosis, Cambridge, UK).
(d) Synergy Disc Diffusion Assay (SDDA)
This is a variation on the DDA method, in which two compounds are tested together for their combined antimicrobial activity.
Two test compounds A and B were placed on a single paper disc and the above described DDA procedure repeated.
The two compounds were then subjected in combination to the SDDA assay described above.
MIC/MBC experiments were performed in duplicate and (S)DDA experiments in triplicate.
The tropolone was dissolved in ethanol.

[2] = system: Propionibacterium acnes NCTC 737; experiment: Minimum biocidal concentration (MBC) assay; assay type: cell-based
Protocol: (§8) The first test organism used was Propionibacterium acnes NCTC 737. This is a propionibacterial strain and is the type strain of the genus; it is fully susceptible to antibiotics. The propionibacteria are clinically significant due to their involvement in acne. They are also opportunistic pathogens in compromised hosts. Activity observed against these micro-organisms is expected to be a good predictor of activity against acne.
(§9) The propionibacteria were cultured and maintained on Wilkins-Chalgren Anaerobe Medium (agar and broth) at pH 6.0; all cultures were incubated anaerobically at 37° C. for 72 hours.
(b) Minimum Biocidal Concentration (MBC) Assay
This assay, normally carried out after an MIC assay, determines the minimum concentration of a compound that is lethal to the micro-organism being tested.
as §5

[3] = system: Propionibacterium acnes NCTC 737; experiment: Minimum inhibitory concentration (MIC) assay; assay type: cell-based
Protocol: as §8, §9
(a) Minimum Inhibitory Concentration (MIC) Assay
This is a standard international method for quantitatively assessing the antimicrobial activity of a compound in a liquid medium. The method used a sterile 96-well microtitre plate, capable of holding about 200 μl of liquid per well. The wells contained liquid culture medium and ranges of decreasing concentrations of the relevant test compound in doubling dilutions (eg 1000, 500, 250, 125 . . . μg/ml, etc, down to 0.49 μg/ml). The culture media were as described above.
as §3, with “of test compound required to” for “of test compounds alone or concentrations of the mixture of the two test compounds required to”, “ie the lowest concentration for which the liquid in” for “ie the liquid in”
The assays included both negative (culture medium with no micro-organisms) and positive (culture medium plus diluting solvent plus micro-organism) controls.

[4] = C. striatum NCTC 764, compound alone
[5] = compound alone, 12.5 μg per disc (gluconate, picolinate 25 μg; silicate 12.4 μg; chlorophyllin 200 μg)
[6] = copper salt + tropolone versus the greater single zone
[7] = copper salt combined with tropolone on one disc, 12.5 μg each (exceptions b187)
[8] = P. acnes NCTC 737, compound alone

Compound | MBC (C. striatum NCTC 764; [4]) | MIC (C. striatum NCTC 764; [4]) | DDA zone of inhibition diameter [1, 5] [mm] | SDDA area increase [1, 6] [%] | SDDA increase [1, 6] [mm] | (S)DDA with tropolone [1, 7] [mm] | MBC [2, 8] [µg/mL] | MIC/MBC ratio [2, 8] | MIC [3, 8] [µg/mL] | also measured
CC(=O)[O-].CC(=O)[O-].CC(=O)[O-].[Bi+3] [Bismuth (III) acetate] | – | – | – | – | – | – | – | – | – | MBC (P. acnes NCTC 737; compound alone): >46.4** μg/ml; MIC (P. acnes NCTC 737; compound alone): 11.6 µg/mL
[Cl][Bi]([Cl])[Cl] [Bismuth (III) chloride] | – | – | – | – | – | – | – | – | – | MBC (P. acnes NCTC 737; compound alone): 27 µg/mL and 40 µg/mL
O=C([O-])CC(O)(CC(=O)[O-])C(=O)[O-].[Bi+3] [Bismuth (III) citrate] | – | – | – | – | – | – | – | – | – | MBC (C. striatum NCTC 764): >67.9** μg/ml; MIC (C. striatum NCTC 764): >67.9** μg/ml; MBC (P. acnes NCTC 737; compound alone): 8.5 µg/mL; MIC (P. acnes NCTC 737; compound alone): 2.1 µg/mL
O=C(O)c1cc(O)c2c(c1)[O][Bi]([OH])[O]2 [Bismuth (III) subgallate] | >67.2** μg/ml | >67.2** μg/ml | – | – | – | – | – | – | – | MBC (P. acnes NCTC 737; compound alone): >67.2** μg/ml; MIC (P. acnes NCTC 737; compound alone): >67.2** μg/ml
[Cu+].[I-] [Copper (I) iodide] | >97.5** μg/ml | >97.5** μg/ml | 29.66 | 24.28 | 3.41 | 33.07 | 31.25 | 0.25 | 7.8 | –
O=C1CC[C@@H](C(=O)[O-])N1.O=C1CC[C@@H](C(=O)[O-])N1.[Cu+2] [Copper (II) PCA] | >81.9** μg/ml | >81.9** μg/ml | 23.36 | 55.70 | 5.79 | 29.15 | 62.5 | 0.25 | 15.6 | –
CSCC[C@H](NC(C)=O)C(=O)[O-].CSCC[C@H](NC(C)=O)C(=O)[O-].[Cu+2] [Copper (II) acetylmethionate] | – | – | 10.23 | 306.27 | 13.44 | 26.67 | 125 | 0.06 | 7.8 | –
[Cl][Cu][Cl] [Copper (II) chloride] | >34.4** μg/ml | >34.4** μg/ml | 32.14 | 1.94 | 0.31 | 32.45 | 31.25 | 0.06 | 1.95 | –
NCC(=O)[O-].NCC(=O)[O-].[Cu+2] [Copper (II) glycinate] | – | – | – | – | – | – | – | – | – | MBC (C. striatum NCTC 764): >54.2** μg/ml; MIC (C. striatum NCTC 764): >54.2** μg/ml
CC(=O)c1c([O-])c(C)c([O-])c2c1OC1=CC(=O)C(C(C)=O)C(=O)C12C.[Cu+2] (centres unmarked) [Copper (II) usnate] | 6 µg/mL | 3 µg/mL | 38.35 | 22.13 | 4.03 | 42.38 | 1.95 | 0.125 | 0.25 | –
O=C([O-])CN(CCN(CC(=O)[O-])CC(=O)[O-])CC(=O)[O-].[Cu+2].[Na+].[Na+] [EDTA copper (II) disodium salt] | – | – | 10.03 | 328.62 | 14.16 | 27.39 | >250 | <0.03 | 7.8 | –
CC(C)c1cccc(=O)c(O)c1 [Hinokitiol, 2-hydroxy-4-isopropyl-2,4,6-cycloheptatrien-1-one] | – | – | – | – | – | – | – | – | – | MBC (P. acnes NCTC 737; Cutibacterium acnes, NCTC737, compound alone, read-out: MBC): 62.5 µg/mL; MIC (P. acnes NCTC 737; Cutibacterium acnes, NCTC737, compound alone, read-out: MIC): 31.2 µg/mL
O.O=C(O)CC(O)(CC(=O)O)C(=O)O.[Ag].[Ag].[Ag] [Silver (I) citrate hydrate] | 11.3 µg/mL | 2.83 µg/mL | – | – | – | – | – | – | – | –
Bismuth (III) subnitrate | >249.4** μg/ml | >249.4** μg/ml | – | – | – | – | – | – | – | MBC (P. acnes NCTC 737; compound alone): 15.6 µg/mL; MIC (P. acnes NCTC 737; compound alone): 3.9 µg/mL
Copper (II) carbonate basic | >28.3** μg/ml | >28.3** μg/ml | 9.10 | 102.17 | 5.58 | 18.81 | 31.25 | 0.25 | 7.8 | –
Copper (II) citrate dihydrate | – | – | – | – | – | – | – | – | – | MBC (C. striatum NCTC 764): >45** μg/ml; MIC (C. striatum NCTC 764): >45** μg/ml; (S)DDA with tropolone [1]: 32.45 mm; DDA zone of inhibition diameter [1]: 32.04 mm; SDDA area increase [1]: 2.60%; SDDA increase [1]: 0.41 mm; MBC [2]: 31.25 µg/mL; MIC/MBC ratio [2]: 0.06; MIC [3]: 1.95 µg/mL
Copper (II) gluconate | >116** μg/ml | >116** μg/ml | 26.25 | 40.43 | 4.86 | 31.11 | 125 | 0.5 | 62.5 | –
Copper (II) picolinate | >78.8** μg/ml | >78.8** μg/ml | 35.25 | −14.13 | −2.58 | 32.66 | 62.5 | 1 | 62.5 | –
Copper (II) salicylate | – | – | – | – | – | – | – | – | – | MBC (C. striatum NCTC 764): >86** μg/ml; MIC (C. striatum NCTC 764): >86** μg/ml; (S)DDA with tropolone [1]: 32.87 mm; DDA zone of inhibition diameter [1]: 28.32 mm; SDDA area increase [1]: 34.70%; SDDA increase [1]: 4.55 mm; MBC [2]: 31.25 µg/mL; MIC/MBC ratio [2]: 0.25; MIC [3]: 7.8 µg/mL
Copper (II) silicate | >35.7** μg/ml | >35.7** μg/ml | 33.80 | 3.08 | 0.52 | 34.32 | 38.75 | 0.125 | 4.84 | –
Sodium copper (II) chlorophyllin | >185** μg/ml | 23.2 µg/mL | 0.00 | 220.07 | 10.44 | 23.67 | 31.25 | 0.5 | 15.6 | –

Source: US20130209386A1, “NEW USES” (EVOCUTIS PLC, priority 2010, published 2013)
